The data set deals with CCRIS mutagenicity, Ames/micronucleus/aberration tests. The data set can be described thus: CCRIS mutagenicity studies.
Where [1] appears, read: Test System: AMES SALMONELLA TYPHIMURIUM, Strain/Indicator: TA100, Metabolic Activation: NONE, Method: STANDARD PLATE.
Where [2] appears, read: Test System: AMES SALMONELLA TYPHIMURIUM, Strain/Indicator: TA98, Metabolic Activation: NONE, Method: PREINCUBATION
Setting [3] is: Test System: AMES SALMONELLA TYPHIMURIUM, Strain/Indicator: TA100, Metabolic Activation: NONE, Method: PREINCUBATION
Setting [4] is: Test System: AMES SALMONELLA TYPHIMURIUM, Strain/Indicator: TA102, Metabolic Activation: NONE, Method: PREINCUBATION
[5] abbreviates: Test System: AMES SALMONELLA TYPHIMURIUM, Strain/Indicator: TA100, Metabolic Activation: RAT, LIVER, S-9, AROCLOR 1254, Method: STANDARD PLATE.
The mark [6] stands for this setting: Test System: AMES SALMONELLA TYPHIMURIUM, Strain/Indicator: TA98, Metabolic Activation: NONE, Method: STANDARD PLATE.
[7] abbreviates: Test System: AMES SALMONELLA TYPHIMURIUM, Strain/Indicator: TA98, Metabolic Activation: RAT, LIVER, S-9, AROCLOR 1254, Method: STANDARD PLATE.

Calls of active or inactive are those of the source. The rule behind the calls is not given here.

Turning to `CCCCOc1c(C(=O)NOC(C)=O)cccc1[N+](=O)[O-]`, the mutagenic call under setting [1] is “inactive; negative” and the mutagenic call (Test System: AMES SALMONELLA TYPHIMURIUM, Strain/Indicator: TA100, Metabolic Activation: RAT, S-9, AROCLOR, Method: STANDARD PLATE) was “active; positive”.
For the compound `CCOC(=O)c1cc(Cc2ccc(N)c(C(=O)OCC)c2)ccc1N`, the mutagenic call is, setting by setting: under setting [2], “inactive; negative”; (Test System: AMES SALMONELLA TYPHIMURIUM, Strain/Indicator: TA98, Metabolic Activation: RAT, LIVER, S-9, PCB, Method: PREINCUBATION) “inactive; negative”; under setting [3], “inactive; negative”.
In the case of `CS(=O)(=O)N1C2c3ccccc3-c3ccccc3C21` (configuration not stated), the mutagenic call under setting [1] was “active; positive” and the mutagenic call (Test System: CHINESE HAMSTER V-79, Strain/Indicator: V-79/6-THIOGUANINE, Metabolic Activation: NONE, Method: STANDARD PLATE) was “inactive; negative”.
For the compound `Nc1nc(N)nc(-c2ccccc2)n1`, the mutagenic call was “inactive; negative” under setting [2]; “inactive; negative” (Test System: AMES SALMONELLA TYPHIMURIUM, Strain/Indicator: TA98, Metabolic Activation: RAT, LIVER, S-9, PHENOBARBITAL AND BETA-NAPHTHOFLAVONE, Method: PREINCUBATION); “inactive; negative” under setting [3]; “inactive; negative” (Test System: AMES SALMONELLA TYPHIMURIUM, Strain/Indicator: TA100, Metabolic Activation: RAT, LIVER, S-9, PHENOBARBITAL AND BETA-NAPHTHOFLAVONE, Method: PREINCUBATION); “inactive; negative” under setting [4]; “inactive; negative” (Test System: AMES SALMONELLA TYPHIMURIUM, Strain/Indicator: TA102, Metabolic Activation: RAT, LIVER, S-9, PHENOBARBITAL AND BETA-NAPHTHOFLAVONE, Method: PREINCUBATION). The mutagenic call runs as follows: (Test System: AMES SALMONELLA TYPHIMURIUM, Strain/Indicator: TA104, Metabolic Activation: NONE, Method: PREINCUBATION) “inactive; negative”; (Test System: AMES SALMONELLA TYPHIMURIUM, Strain/Indicator: TA104, Metabolic Activation: RAT, LIVER, S-9, PHENOBARBITAL AND BETA-NAPHTHOFLAVONE, Method: PREINCUBATION) “inactive; negative”; (Test System: AMES SALMONELLA TYPHIMURIUM, Strain/Indicator: TA1535, Metabolic Activation: NONE, Method: PREINCUBATION) “inactive; negative”; (Test System: AMES SALMONELLA TYPHIMURIUM, Strain/Indicator: TA1535, Metabolic Activation: RAT, LIVER, S-9, PHENOBARBITAL AND BETA-NAPHTHOFLAVONE, Method: PREINCUBATION) “inactive; negative”; (Test System: AMES SALMONELLA TYPHIMURIUM, Strain/Indicator: TA1537, Metabolic Activation: NONE, Method: PREINCUBATION) “inactive; negative”; (Test System: AMES SALMONELLA TYPHIMURIUM, Strain/Indicator: TA1537, Metabolic Activation: RAT, LIVER, S-9, SODIUM PHENOBARBITAL AND 5,6-BENZOFLAVONE, Method: PREINCUBATION) “inactive; negative”. For the same compound, the mutagenic call was “inactive; negative” (Test System: E. COLI, Strain/Indicator: WP2UVRA/PKM101, Metabolic Activation: NONE, Method: PREINCUBATION); “inactive; negative” (Test System: E. COLI, Strain/Indicator: WP2UVRA/PKM101, Metabolic Activation: RAT, LIVER, S-9, SODIUM PHENOBARBITAL AND 5,6-BENZOFLAVONE, Method: PREINCUBATION); “inactive; negative” (Test System: E. COLI, Strain/Indicator: WP2UVRA, Metabolic Activation: NONE, Method: PREINCUBATION); “inactive; negative” (Test System: E. COLI, Strain/Indicator: WP2UVRA, Metabolic Activation: RAT, LIVER, S-9, PHENOBARBITAL AND BETA-NAPHTHOFLAVONE, Method: PREINCUBATION).
In the case of `Nc1ccc(Oc2ccc(Oc3ccc(N)cc3)cc2)cc1`, the mutagenic call under setting [2] was “inactive; negative”; the mutagenic call under setting [3] was “inactive; negative”; the mutagenic call (Test System: AMES SALMONELLA TYPHIMURIUM, Strain/Indicator: TA100, Metabolic Activation: RAT, LIVER, S-9, PCB, Method: PREINCUBATION) is “active; positive”.
With `Cc1ccc2c(C)c3ccc4ccccc4c3nc2c1`, the mutagenic call (Test System: AMES SALMONELLA TYPHIMURIUM, Strain/Indicator: TA97A, Metabolic Activation: NONE, Method: PREINCUBATION) is “active; positive”; the mutagenic call under setting [2] is “active; positive”; the mutagenic call under setting [3] is “active; positive”; the mutagenic call under setting [5] is “active; positive”; the mutagenic call under setting [4] is “active; positive”.
For `Cc1cc2c(cc1N=O)OCO2`, the mutagenic call reads like this: under setting [3], “active; positive”; (Test System: AMES SALMONELLA TYPHIMURIUM, Strain/Indicator: TA100, Metabolic Activation: RAT, LIVER, S-9, PHENOBARBITAL AND 5,6-BENZOFLAVONE, Method: PREINCUBATION) “active; positive”.
Take `C=CCN(CC=C)c1cc(NC(C)=O)c(N=Nc2c(Br)cc([N+](=O)[O-])cc2[N+](=O)[O-])cc1OC`: the mutagenic call reads like this: under setting [6], “inactive; negative”; under setting [7], “active; positive”; (Test System: AMES SALMONELLA TYPHIMURIUM, Strain/Indicator: YG1041, Metabolic Activation: NONE, Method: STANDARD PLATE) “active; positive”; (Test System: AMES SALMONELLA TYPHIMURIUM, Strain/Indicator: YG1041, Metabolic Activation: RAT, LIVER, S-9, AROCLOR 1254, Method: STANDARD PLATE) “active; positive”.
Consider `O=Cc1cccc2cccnc12`, for which the mutagenic call under setting [6] is “inactive; negative”; the mutagenic call under setting [7] is “inactive; negative”; the mutagenic call under setting [1] is “inactive; negative”; the mutagenic call under setting [5] is “active; positive”; the mutagenic call (Test System: AMES SALMONELLA TYPHIMURIUM, Strain/Indicator: TA1535, Metabolic Activation: NONE, Method: STANDARD PLATE) was “inactive; negative”; the mutagenic call (Test System: AMES SALMONELLA TYPHIMURIUM, Strain/Indicator: TA1535, Metabolic Activation: RAT, LIVER, S-9, AROCLOR 1254, Method: STANDARD PLATE) was “inactive; negative”. The mutagenic call is “inactive; negative” (Test System: AMES SALMONELLA TYPHIMURIUM, Strain/Indicator: TA1537, Metabolic Activation: NONE, Method: STANDARD PLATE) and “inactive; negative” (Test System: AMES SALMONELLA TYPHIMURIUM, Strain/Indicator: TA1537, Metabolic Activation: RAT, LIVER, S-9, AROCLOR 1254, Method: STANDARD PLATE).
For `OC[C@H]1O[C@@H](Oc2ccc(O)cc2)[C@H](O)[C@@H](O)[C@@H]1O`, the mutagenic call (Test System: Chinese hamster lung cells, Strain/Indicator: CHL (HPRT)/6-Thioguanine, Metabolic Activation: None, Method: Standard Plate) is “inactive; negative”.
With `C=C1C[C@@]23CC[C@H]4[C@@](C)(CCC[C@@]4(C)C(=O)O[C@@H]4O[C@H](CO)[C@@H](O)[C@H](O)[C@H]4O)[C@@H]2CC[C@]1(O[C@@H]1O[C@H](CO)[C@@H](O)[C@H](O)[C@H]1O[C@@H]1O[C@@H](C)[C@H](O)[C@@H](O)[C@H]1O)C3`, the mutagenic call (Test System: AMES SALMONELLA TYPHIMURIUM, Strain/Indicator: TM677, Metabolic Activation: RAT, LIVER, S-9, AROCLOR 1254, Method: PREINCUBATION) is “inactive; negative”.
For the compound `O=[N+]([O-])c1ccc2c3ccccc3c3ccc([N+](=O)[O-])c4ccc1c2c43`, the mutagenic call by setting is: (End Point: In vitro micronucleus, Test System: CHL/IU cells, Metabolic Activation: None) “active; positive”; (End Point: In vitro micronucleus, Test System: HepG2 cells, Metabolic Activation: None) “active; positive”; (Test System: Chinese hamster lung cells/HPRT locus, Strain/Indicator: CHL/IU, Metabolic Activation: None) “active; positive”; (Test System: Human liver cells/HPRT locus, Strain/Indicator: HepG2, Metabolic Activation: None) “active; positive”.
Regarding `Nc1ccc2snc(Cl)c2c1`, the mutagenic call under setting [1] is “active; positive”.

Source of the values: PubChem BioAssay AID1259407 (Chemical Carcinogenesis Research Information System (CCRIS), 2018).
